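Briefly, cells in 96-well plates were exposed to five compound concentrations for 48 h, and endpoints were estimated by linear interpolation. TGI is the concentration that stops growth completely.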
How the values were obtained:
Test in all cases: NCI tumour cell line growth inhibition, 48 h
M14 melanoma = test system: M14 melanoma
ACHN renal = test system: ACHN renal
786-0 renal = test system: 786-0 renal
SNB-19 CNS = test system: SNB-19 CNS
T-47D breast = test system: T-47D breast
UACC-257 melanoma = test system: UACC-257 melanoma
MALME-3M melanoma = test system: MALME-3M melanoma
CAKI-1 renal = test system: CAKI-1 renal
SW-620 colon = test system: SW-620 colon
LOX IMVI melanoma = test system: LOX IMVI melanoma
OVCAR-8 ovarian = test system: OVCAR-8 ovarian
SK-MEL-2 melanoma = test system: SK-MEL-2 melanoma
SN12C renal = test system: SN12C renal
IGROV1 ovarian = test system: IGROV1 ovarian
HCT-116 colon = test system: HCT-116 colon
HOP-92 NSCLC = test system: HOP-92 NSCLC
U251 CNS = test system: U251 CNS
HCC-2998 colon = test system: HCC-2998 colon
NCI/ADR-RES ovarian = test system: NCI/ADR-RES ovarian
OVCAR-3 ovarian = test system: OVCAR-3 ovarian
HOP-62 NSCLC = test system: HOP-62 NSCLC
SK-MEL-28 melanoma = test system: SK-MEL-28 melanoma
NCI-H522 lung = test system: NCI-H522 lung
RPMI-8226 leukemia = test system: RPMI-8226 leukemia
BT-549 breast = test system: BT-549 breast
CCRF-CEM leukemia = test system: CCRF-CEM leukemia
SK-OV-3 ovarian = test system: SK-OV-3 ovarian
A498 renal = test system: A498 renal
OVCAR-5 ovarian = test system: OVCAR-5 ovarian
HT29 colon = test system: HT29 colon
NCI-H226 lung = test system: NCI-H226 lung
COLO 205 colon = test system: COLO 205 colon
SF-268 CNS = test system: SF-268 CNS
HS 578T breast = test system: HS 578T breast
TK-10 renal = test system: TK-10 renal
NCI-H23 lung = test system: NCI-H23 lung
K-562 leukemia = test system: K-562 leukemia
A549 NSCLC = test system: A549 NSCLC
DU-145 prostate = test system: DU-145 prostate
UACC-62 melanoma = test system: UACC-62 melanoma
RXF 393 renal = test system: RXF 393 renal
UO-31 renal = test system: UO-31 renal
SF-295 CNS = test system: SF-295 CNS
MDA-MB-231 breast = test system: MDA-MB-231 breast
SR leukemia = test system: SR leukemia
MDA-MB-435 = test system: MDA-MB-435
SK-MEL-5 melanoma = test system: SK-MEL-5 melanoma
MDA-N = test system: MDA-N
HCT-15 colon = test system: HCT-15 colon
SNB-75 CNS = test system: SNB-75 CNS
NCI-H460 lung = test system: NCI-H460 lung
PC-3 prostate = test system: PC-3 prostate
OVCAR-4 ovarian = test system: OVCAR-4 ovarian
MOLT-4 leukemia = test system: MOLT-4 leukemia
KM12 colon = test system: KM12 colon
SF-539 CNS = test system: SF-539 CNS
MCF7 breast = test system: MCF7 breast
EKVX NSCLC = test system: EKVX NSCLC
HL-60(TB) leukemia = test system: HL-60(TB) leukemia

Measured: TGI

O=c1c2sc3nc(NCCN4CCCCC4)ncc3c2ncn1-c1ccccc1
58.4 µM: MALME-3M melanoma
39.2 µM: M14 melanoma
> 100 µM: ACHN renal | 786-0 renal | SNB-19 CNS | T-47D breast | UACC-257 melanoma | CAKI-1 renal | SW-620 colon | OVCAR-8 ovarian | SK-MEL-2 melanoma | SN12C renal | IGROV1 ovarian | HCT-116 colon | U251 CNS | HCC-2998 colon | NCI/ADR-RES ovarian | OVCAR-3 ovarian | HOP-62 NSCLC | SK-MEL-28 melanoma | NCI-H522 lung | RPMI-8226 leukemia | BT-549 breast | CCRF-CEM leukemia | SK-OV-3 ovarian | A498 renal | OVCAR-5 ovarian | HT29 colon | NCI-H226 lung | COLO 205 colon | SF-268 CNS | HS 578T breast | TK-10 renal | NCI-H23 lung | K-562 leukemia | A549 NSCLC | DU-145 prostate | UACC-62 melanoma | SF-295 CNS | MDA-MB-231 breast | SR leukemia | MDA-MB-435 | MDA-N | HCT-15 colon | SNB-75 CNS | NCI-H460 lung | PC-3 prostate | OVCAR-4 ovarian | MOLT-4 leukemia | KM12 colon
95.5 µM: HOP-92 NSCLC
41.9 µM: LOX IMVI melanoma
49.9 µM: UO-31 renal
84.4 µM: RXF 393 renal
36.3 µM: SK-MEL-5 melanoma

CC(C)=CCC[C@@H](C)C1=C(O)C(c2c(I)c(=O)n(C)c(=O)n2C)=C(C)C(=O)C1=O
> 100 µM: M14 melanoma | ACHN renal | SF-539 CNS | 786-0 renal | SNB-19 CNS | T-47D breast | UACC-257 melanoma | MALME-3M melanoma | CAKI-1 renal | SW-620 colon | MCF7 breast | LOX IMVI melanoma | OVCAR-8 ovarian | SK-MEL-2 melanoma | SN12C renal | IGROV1 ovarian | HCT-116 colon | HOP-92 NSCLC | HCC-2998 colon | NCI/ADR-RES ovarian | OVCAR-3 ovarian | HOP-62 NSCLC | SK-MEL-28 melanoma | RPMI-8226 leukemia | BT-549 breast | CCRF-CEM leukemia | SK-OV-3 ovarian | A498 renal | OVCAR-5 ovarian | HT29 colon | NCI-H226 lung | COLO 205 colon | SF-268 CNS | HS 578T breast | TK-10 renal | NCI-H23 lung | K-562 leukemia | A549 NSCLC | DU-145 prostate | UO-31 renal | SF-295 CNS | MDA-MB-435 | EKVX NSCLC | MDA-N | HCT-15 colon | SNB-75 CNS | HL-60(TB) leukemia | NCI-H460 lung | PC-3 prostate | OVCAR-4 ovarian | MOLT-4 leukemia | KM12 colon

COC(=O)/C=C\n1ncc(=O)[nH]c1=O
> 100 µM: M14 melanoma | ACHN renal | SNB-19 CNS | T-47D breast | UACC-257 melanoma | MALME-3M melanoma | CAKI-1 renal | SW-620 colon | OVCAR-8 ovarian | SK-MEL-2 melanoma | SN12C renal | IGROV1 ovarian | HOP-92 NSCLC | U251 CNS | HCC-2998 colon | NCI/ADR-RES ovarian | OVCAR-3 ovarian | HOP-62 NSCLC | SK-MEL-28 melanoma | NCI-H522 lung | RPMI-8226 leukemia | BT-549 breast | A498 renal | OVCAR-5 ovarian | HT29 colon | NCI-H226 lung | COLO 205 colon | SF-268 CNS | HS 578T breast | TK-10 renal | NCI-H23 lung | K-562 leukemia | A549 NSCLC | DU-145 prostate | UO-31 renal | MDA-MB-231 breast | MDA-MB-435 | EKVX NSCLC | SK-MEL-5 melanoma | MDA-N | HCT-15 colon | SNB-75 CNS | HL-60(TB) leukemia | NCI-H460 lung | PC-3 prostate | OVCAR-4 ovarian | MOLT-4 leukemia

From PubChem BioAssay (NCI)
